Assay results: patent publication EP4273147A1, “SUBSTITUTED SPIROLACTAMS, SALTS THEREOF AND THEIR USE AS HERBICIDALLY ACTIVE SUBSTANCES” (Bayer Aktiengesellschaft, priority 2022, dated 2023)

Assays:
[1] = test system: LOLRI; test: Herbicidal pre-emergence action (Table A3); format: in vivo, Lolium rigidum; conditions: application rate 320 g/ha, visual grading after ca. 3 weeks
In short: (§1)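 For this pre-emergence setup, sandy loam pots received seeds of one monocot and one dicot weed species each. The seeds were then covered with soil.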

[2] = test system: MATIN; test: Herbicidal pre-emergence action (Table A4); format: in vivo, Matricaria inodora; conditions: visual grading after ca. 3 weeks
In short: as §1

[3] = test system: SETVI; test: Herbicidal pre-emergence action (Table A5); format: in vivo, Setaria viridis; conditions: visual grading after ca. 3 weeks
In short: as §1

[4] = test system: STEME; test: Herbicidal pre-emergence action (Table A6); format: in vivo, Stellaria media; conditions: visual grading after ca. 3 weeks
In short: as §1

[5] = test system: POAAN; test: Herbicidal pre-emergence action (Table A7); format: in vivo, Poa annua; conditions: application rate 320 g/ha, visual grading after ca. 3 weeks
In short: as §1

[6] = test system: ALOMY; test: Herbicidal pre-emergence action (Table A9); format: in vivo, Alopecurus myosuroides; conditions: application rate 1280 g/ha; visual grading after ca. 3 weeks
In short: as §1

[7] = test system: KCHSC; test: Herbicidal pre-emergence action (Table A10); format: in vivo, Kochia scoparia; conditions: visual grading after ca. 3 weeks
In short: as §1

[8] = test system: VERPE; test: Herbicidal pre-emergence action (Table A11); format: in vivo, Veronica persica; conditions: visual grading after ca. 3 weeks
In short: as §1

[9] = test system: DIGSA; test: Herbicidal pre-emergence action (Table A12); format: in vivo, Digitaria sanguinalis; conditions: application rate 320 g/ha; visual grading after ca. 3 weeks
In short: as §1

[10] = test system: ECHCG; test: Herbicidal post-emergence action (Table B3); format: in vivo, Echinochloa crus-galli; conditions: application rate 1280 g/ha; rated visually after about 3 weeks
In short: (§2)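 Visual rating against untreated plants (0% = as control, 100% = dead) made roughly 3 weeks after application. Weed species were grown in sandy loam pots under greenhouse conditions and sprayed at the one-leaf stage, 2–3 weeks post-sowing.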

[11] = test system: POAAN; test: Herbicidal post-emergence action (Table B7); format: in vivo, Poa annua
In short: as §2

[12] = test system: ABUTH; test: Herbicidal pre-emergence action, section C (Table C1); format: in vivo, Abutilon theophrasti; conditions: application rate 320 g/ha; visual grading after ca. 3 weeks
From the text: (§4) Seeds of mono- and dicotyledonous weed plants and crop plants were sown, in plastic or organic planting pots, in sandy loam and covered with soil. The compounds according to the invention, formulated in the form of wettable powders (WP) or as emulsifiable concentrates (EC), were applied to the surface of the covering soil as aqueous suspension or emulsion, with the addition of 0.5% of an additive, at an application rate of 600 1 of water/ha (converted). Following treatment, the pots were placed in a greenhouse and kept under optimum growth conditions for the test plants.

[13] = test system: ALOMY; test: Herbicidal pre-emergence action, section C (Table C2); format: in vivo, Alopecurus myosuroides; conditions: application rate 320 g/ha; visual grading after ca. 3 weeks
[14] = test system: AVEFA; test: Herbicidal pre-emergence action, section C (Table C4); format: in vivo, Avena fatua; conditions: application rate 320 g/ha; visual grading after ca. 3 weeks
From the text: as §4

[15] = test system: DIGSA; test: Herbicidal pre-emergence action, section C (Table C5); format: in vivo, Digitaria sanguinalis; conditions: visual grading after ca. 3 weeks
[16] = test system: ECHCG; test: Herbicidal pre-emergence action, section C (Table C6); format: in vivo, Echinochloa crus-galli; conditions: application rate 80 g/ha; visual grading after ca. 3 weeks
[17] = test system: LOLRI; test: Herbicidal pre-emergence action, section C (Table C7); format: in vivo, Lolium rigidum; conditions: application rate 320 g/ha; visual grading after ca. 3 weeks
[18] = test system: SETVI; test: Herbicidal pre-emergence action, section C (Table C10); format: in vivo, Setaria viridis; conditions: visual grading after ca. 3 weeks
[19] = test system: VERPE; test: Herbicidal pre-emergence action, section C (Table C11); format: in vivo, Veronica persica; conditions: application rate 320 g/ha; visual grading after ca. 3 weeks
[20] = test system: VIOTR; test: Herbicidal pre-emergence action, section C (Table C12); format: in vivo, Viola tricolor; conditions: visual grading after ca. 3 weeks
[21] = test system: ZEAMX; test: Pre-emergence effects on crop plants (Table D1); format: in vivo, Zea mays; conditions: crop plant; application rate 80 g/ha; visual grading after ca. 3 weeks
[22] = test system: TRZAS; test: Pre-emergence effects on crop plants (Table D2); format: in vivo, Triticum aestivum; conditions: crop plant; application rate 80 g/ha; visual grading after ca. 3 weeks
[23] = test system: GLXMA; test: Pre-emergence effects on crop plants (Table D4); format: in vivo, Glycine max; conditions: crop plant; application rate 80 g/ha; visual grading after ca. 3 weeks
[24] = test system: ABUTH; test: Herbicidal post-emergence action, section E (Table E1); format: in vivo, Abutilon theophrasti; conditions: application rate 320 g/ha; assessed visually after ca. 3 weeks
From the text: (§3) 2 to 3 weeks after sowing, the test plants were sprayed in the single-leaf stage.

[25] = test system: VERPE; test: Herbicidal post-emergence action, section E (Table E9); format: in vivo, Veronica persica; conditions: application rate 320 g/ha; assessed visually after ca. 3 weeks
From the text: as §3

[26] = test system: VIOTR; test: Herbicidal post-emergence action, section E (Table E10); format: in vivo, Viola tricolor; conditions: application rate 320 g/ha; assessed visually after ca. 3 weeks
From the text: as §3

[27] = test system: ZEAMX; test: Post-emergence effects on crop plants (Table F1); format: in vivo, Zea mays; conditions: crop plant ZEAMX
From the text: as §3

[28] = test system: TRZAS; test: Post-emergence effects on crop plants (Table F2); format: in vivo, Triticum aestivum; conditions: crop plant TRZAS
From the text: as §3

[29] = test system: ORYZA; test: Post-emergence effects on crop plants (Table F3); format: in vivo, Oryza sativa; conditions: crop plant ORYZA
From the text: as §3

[30] = test system: ORYZA; test: Pre-emergence effects on crop plants (Table D3); conditions: crop plant; application rate 320 g/ha; visual grading after ca. 3 weeks
[31] = test system: ABUTH; test: Herbicidal pre-emergence action (Table A1); format: in vivo, Abutilon theophrasti; conditions: application rate 1280 g/ha; visual grading after ca. 3 weeks vs untreated controls (100% = plants have died off, 0% = as control plants)
In short: as §1

[32] = test system: ECHCG; test: Herbicidal pre-emergence action (Table A2); format: in vivo, Echinochloa crus-galli; conditions: application rate 320 g/ha; visual grading after ca. 3 weeks
In short: as §1

[33] = test system: ABUTH; test: Herbicidal post-emergence action (Table B1); format: in vivo, Abutilon theophrasti; conditions: application rate 320 g/ha; treated at one-leaf stage; rated visually after about 3 weeks vs untreated controls (100% = plants have died, 0% = like control plants)
In short: as §2

[34] = test system: ALOMY; test: Herbicidal post-emergence action (Table B2); format: in vivo, Alopecurus myosuroides; conditions: application rate 320 g/ha; rated visually after about 3 weeks
In short: as §2

[35] = test system: KCHSC; test: Herbicidal post-emergence action (Table B4); format: in vivo, Kochia scoparia; conditions: application rate 1280 g/ha; rated visually after about 3 weeks
In short: as §2

[36] = test system: LOLRI; test: Herbicidal post-emergence action (Table B5); format: in vivo, Lolium rigidum; conditions: application rate 1280 g/ha; rated visually after about 3 weeks
In short: as §2

[37] = test system: MATIN; test: Herbicidal post-emergence action (Table B6); format: in vivo, Matricaria inodora; conditions: application rate 320 g/ha; rated visually after about 3 weeks
In short: as §2

[38] = test system: SETVI; test: Herbicidal post-emergence action (Table B8); format: in vivo, Setaria viridis; conditions: application rate 1280 g/ha
In short: as §2

[39] = test system: STEME; test: Herbicidal post-emergence action (Table B9); format: in vivo, Stellaria media; conditions: application rate 1280 g/ha
In short: as §2

[40] = test system: VERPE; test: Herbicidal post-emergence action (Table B10); format: in vivo, Veronica persica; conditions: application rate 320 g/ha
In short: as §2

[41] = test system: AMARE; test: Herbicidal post-emergence action (Table B11); format: in vivo, Amaranthus retroflexus; conditions: application rate 1280 g/ha
In short: as §2

[42] = test system: MATIN; test: Herbicidal pre-emergence action, section C (Table C8); format: in vivo, Matricaria inodora; conditions: application rate 320 g/ha; visual grading after ca. 3 weeks
From the text: as §4

[43] = test system: ALOMY; test: Herbicidal post-emergence action, section E (Table E2); format: in vivo, Alopecurus myosuroides; conditions: application rate 320 g/ha; assessed visually after ca. 3 weeks
From the text: as §3

[44] = test system: ECHCG; test: Herbicidal post-emergence action, section E (Table E5); format: in vivo, Echinochloa crus-galli; conditions: application rate 320 g/ha; assessed visually after ca. 3 weeks
From the text: as §3

[45] = test system: LOLRI; test: Herbicidal post-emergence action, section E (Table E6); format: in vivo, Lolium rigidum; conditions: application rate 320 g/ha; assessed visually after ca. 3 weeks
From the text: as §3

[46] = test system: SETVI; test: Herbicidal post-emergence action, section E (Table E8); format: in vivo, Setaria viridis; conditions: application rate 320 g/ha; assessed visually after ca. 3 weeks
From the text: as §3

[47] = test system: BRSNW; test: Post-emergence effects on crop plants (Table F5); format: in vivo, Brassica napus; conditions: application rate 320 g/ha, crop plant BRSNW
From the text: as §3

## O=C1N(Cc2ccccc2Cl)CCCC12CCN(Cc1cccc(F)c1F)C2=O (racemic) [I-035]
[1]
  pre-emergence activity against LOLRI: 100%
[2]; application rate 1280 g/ha
  pre-emergence activity against MATIN: 90%
[3]; application rate 1280 g/ha
  pre-emergence activity against SETVI: 100%
[4]; application rate 1280 g/ha
  pre-emergence activity against STEME: 90%
[5]
  pre-emergence activity against POAAN: 100%
[6]
  pre-emergence activity against ALOMY: 90%
[7]; application rate 1280 g/ha
  pre-emergence activity against KCHSC: 90%
[8]; application rate 1280 g/ha
  pre-emergence activity against VERPE: 90%
[9]
  pre-emergence activity against DIGSA: 100%
[10]
  post-emergence activity against ECHCG: 90%
[11]; application rate 1280 g/ha
  post-emergence activity against POAAN: 90%
[12]
  pre-emergence activity against ABUTH: 80%
[13]
  pre-emergence activity against ALOMY: 80%
[14]
  pre-emergence activity against AVEFA: 100%
[15]; application rate 320 g/ha
  pre-emergence activity against DIGSA: 100%
[16]
  pre-emergence activity against ECHCG: 100%
[17]
  pre-emergence activity against LOLRI: 90%
[18]; application rate 320 g/ha
  pre-emergence activity against SETVI: 100%
[19]
  pre-emergence activity against VERPE: 90%
[20]; application rate 80 g/ha
  pre-emergence activity against VIOTR: 90%
[21]
  pre-emergence activity against ZEAMX: 0%
[22]
  pre-emergence activity against TRZAS: 0%
[23]
  pre-emergence activity against GLXMA: 0%
[24]
  post-emergence activity against ABUTH: 90%
[25]
  post-emergence activity against VERPE: 80%
[26]
  post-emergence activity against VIOTR: 80%
[27]; application rate 80 g/ha
  post-emergence activity against ZEAMX: 0%
[28]; application rate 320 g/ha
  post-emergence activity against TRZAS: 0%
[29]; application rate 320 g/ha
  post-emergence activity against ORYZA: 0%
[30]
  pre-emergence activity against ORYZA: 0%

## O=C1N(Cc2cccc(F)c2F)CCCC12CCCN(Cc1c(F)cccc1F)C2=O (racemic) [I-008, 8-[(2,3-difluorophenyl)methyl]-2-[(2,6-difluorophenyl)methyl]-2,8-diazaspiro[5.5]undecane-1,7-dione]
[31]
  pre-emergence activity against ABUTH: 90%
[32]
  pre-emergence activity against ECHCG: 100%
[1]; Lolium rigidum, pre-emergence, 504 h, read-out: pre-emergence activity against LOLRI
  pest or weed control at 320 g/ha: 100%
[2]; application rate 320 g/ha
  pre-emergence activity against MATIN: 100%
[3]; application rate 320 g/ha
  pre-emergence activity against SETVI: 100%
[4]; application rate 320 g/ha
  pre-emergence activity against STEME: 90%
[5]; Poa annua, pre-emergence, 504 h, read-out: pre-emergence activity against POAAN
  pest or weed control at 320 g/ha: 100%
[6]
  pre-emergence activity against ALOMY: 90%
[7]; application rate 320 g/ha
  pre-emergence activity against KCHSC: 90%
[8]; application rate 320 g/ha
  pre-emergence activity against VERPE: 90%
[9]
  pre-emergence activity against DIGSA: 100%
[33]
  post-emergence activity against ABUTH: 90%
[34]
  post-emergence activity against ALOMY: 90%
[35]
  post-emergence activity against KCHSC: 90%
[36]
  post-emergence activity against LOLRI: 100%
[37]
  post-emergence activity against MATIN: 90%
[11]; application rate 320 g/ha
  post-emergence activity against POAAN: 90%
[38]
  post-emergence activity against SETVI: 90%
[39]
  post-emergence activity against STEME: 90%
[40]
  post-emergence activity against VERPE: 90%
[41]
  post-emergence activity against AMARE: 90%
[13]
  pre-emergence activity against ALOMY: 90%
[15]; application rate 80 g/ha
  pre-emergence activity against DIGSA: 100%
[16]
  pre-emergence activity against ECHCG: 100%
[17]
  pre-emergence activity against LOLRI: 90%
[42]
  pre-emergence activity against MATIN: 80%
[18]; application rate 80 g/ha
  pre-emergence activity against SETVI: 100%
[19]
  pre-emergence activity against VERPE: 80%
[20]; application rate 320 g/ha
  pre-emergence activity against VIOTR: 80%
[43]
  post-emergence activity against ALOMY: 90%
[44]
  post-emergence activity against ECHCG: 90%
[45]
  post-emergence activity against LOLRI: 90%
[46]
  post-emergence activity against SETVI: 90%
[25]
  post-emergence activity against VERPE: 80%
[27]; application rate 320 g/ha
  post-emergence activity against ZEAMX: 0%
[28]; application rate 80 g/ha
  post-emergence activity against TRZAS: 0%
[29]; application rate 80 g/ha
  post-emergence activity against ORYZA: 0%
[47]
  post-emergence activity against BRSNW: 0%
